By inhibition is commonly meant the drop in the measured response relative to a control, in per cent. A lower inhibition goes with a response near the control.

The structures appear in SMILES notation. Read-outs that look alike come from different tables or passages of the source.

Experiment [1] has as its target T1, complex II (Homo sapiens, UniProt O14521+P21912+P31040+Q99643). Description: Complex II driven respiration in SH-SY5Y cells. On the set-up: endogenous in cells; host or cells: SH-SY5Y. To be noted: for inhibition at 50 µM: 5 × 10^−5 M; for inhibition at 50 µM / inhibition at 100 µM: means ± SD of 4-6 detections; for inhibition at 100 µM: 10^−4 M. In kind it is cell-based. The source says: (§1) The effect of antipsychotic drugs on respiration in SH-SY5Y cells was studied.

Experiment [2] concerns the target T2, complex I (Homo sapiens, UniProt P19404+P28331+P49821). In words: Complex I driven respiration in SH-SY5Y cells. In kind it is cell-based. On the set-up: endogenous in cells; host or cells: SH-SY5Y. The following applies: for % Inhibition - complex I: 5 × 1O^−5 M; for % Inhibition - complex I / inhibition at 100 µM: means ± SD of 4-6 detections; for inhibition at 100 µM: 10^−4 M.
Source text: as §1

Experiment [3] has as its target T3, NADH CoQ reductase (complex I) (Homo sapiens, UniProt P19404+P28331+P49821).
T3 construct: an enriched mitochondrial fraction was isolated on percoll as described previously; from tissue; host or cells: mitochondria-enriched fraction of blood platelets, disrupted by freeze-thaw or digitonin
In words: NADH-CoQ reductase activity in platelet mitochondria. The class given is biochemical. The following applies: 10 μM rotenone; read-out: Residual activity of NADH CoQ reductase in the presence of rotenone. The method, then:
Blood (40-80 ml) was collected from the cubital vein without tourniquet between 8:00 and 10:00 a.m., mixed 9:1 with 3.8% (w/v) tri-sodium citrate, and platelet-rich plasma (PRP) separated at room temperature by centrifugation at 200×g for 20 min. Platelets were isolated and washed with Tyrode's buffer pH 7.4 containing 1 mM EDTA as described previously (Krige et al., 1992). The platelet pellet was gently resuspended in ice cold 10 mM Tris buffer pH 7.4 containing 250 mM sucrose and 1 mM EDTA and disrupted by a Dounce A homogenizer (20-30 strokes). The breakdown of the platelets was verified by light microscopy. The homogenate was centrifuged at 1000×g at 4° C. for 20 min to remove unbroken cells. The supernatant, containing the cytoplasmic extract was centrifuged at 12,000×g at 4° C. For 15 min and an enriched mitochondrial fraction was isolated on percoll as described previously (Ben-Shachar et al., 1995; Gavin et al., 1990; McComark and Denton, 1989). […] The final preparation was immediately stored at −70° C. until use.
Mitochondrial respiratory chain enzymes activity was assayed blindly and in triplicate after two cycles of freezing and thawing in a final volume of 1 ml at 25° C. by standard techniques. […]
Results from both assays for each sample are expressed as the difference between reductases activities in the absence and the presence of the relevant inhibitors.

For experiment [4], the target named is T4, mitochondrial complex I (NADH ferricyanide reductase) (Homo sapiens, UniProt P19404+P28331+P49821).
T4 construct: an enriched mitochondrial fraction was isolated on percoll as described previously; from tissue; host or cells: mitochondria-enriched fraction of blood platelets, disrupted by freeze-thaw or digitonin
T4 sequence (P49821 21-464): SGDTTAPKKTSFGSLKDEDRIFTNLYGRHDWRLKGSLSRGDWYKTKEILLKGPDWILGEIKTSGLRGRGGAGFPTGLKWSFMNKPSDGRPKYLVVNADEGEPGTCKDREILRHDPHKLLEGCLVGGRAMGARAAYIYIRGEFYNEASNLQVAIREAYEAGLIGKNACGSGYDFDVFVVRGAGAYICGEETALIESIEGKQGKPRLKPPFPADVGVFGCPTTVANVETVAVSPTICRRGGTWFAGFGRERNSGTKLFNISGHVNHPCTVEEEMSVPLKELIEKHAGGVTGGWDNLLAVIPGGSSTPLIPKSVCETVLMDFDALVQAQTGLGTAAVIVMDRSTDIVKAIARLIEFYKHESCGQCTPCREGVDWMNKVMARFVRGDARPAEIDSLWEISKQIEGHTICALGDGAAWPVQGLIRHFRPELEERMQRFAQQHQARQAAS
T4 sequence (P19404 33-249): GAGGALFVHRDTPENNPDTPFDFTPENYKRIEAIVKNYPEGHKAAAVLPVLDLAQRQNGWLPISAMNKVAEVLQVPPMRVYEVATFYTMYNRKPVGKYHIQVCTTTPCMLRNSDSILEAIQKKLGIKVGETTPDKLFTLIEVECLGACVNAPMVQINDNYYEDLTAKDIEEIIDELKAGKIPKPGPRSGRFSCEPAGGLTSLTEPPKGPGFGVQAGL
T4 sequence (P28331 24-727): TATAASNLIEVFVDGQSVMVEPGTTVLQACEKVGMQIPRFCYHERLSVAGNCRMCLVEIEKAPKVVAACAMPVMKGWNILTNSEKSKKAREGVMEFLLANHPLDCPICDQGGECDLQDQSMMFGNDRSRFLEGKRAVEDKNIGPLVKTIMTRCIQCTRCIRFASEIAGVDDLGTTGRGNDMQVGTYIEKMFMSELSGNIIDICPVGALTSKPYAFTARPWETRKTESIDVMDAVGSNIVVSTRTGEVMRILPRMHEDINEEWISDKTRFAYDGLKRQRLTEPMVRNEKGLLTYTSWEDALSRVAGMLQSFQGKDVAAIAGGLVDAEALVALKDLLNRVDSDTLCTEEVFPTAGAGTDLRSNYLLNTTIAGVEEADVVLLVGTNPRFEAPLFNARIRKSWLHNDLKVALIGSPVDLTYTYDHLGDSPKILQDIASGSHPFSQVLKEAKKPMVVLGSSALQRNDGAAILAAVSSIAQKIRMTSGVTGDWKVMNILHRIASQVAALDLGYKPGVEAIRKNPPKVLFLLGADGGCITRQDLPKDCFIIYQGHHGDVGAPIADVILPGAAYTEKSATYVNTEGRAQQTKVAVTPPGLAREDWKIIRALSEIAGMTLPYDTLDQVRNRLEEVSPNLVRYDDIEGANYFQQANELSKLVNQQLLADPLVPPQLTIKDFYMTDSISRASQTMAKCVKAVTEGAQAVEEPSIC
In words: Dopamine inhibition of NADH-ferricyanide reductase (complex I) activity in platelet mitochondria. In kind it is biochemical. The following applies: platelet mitochondrial preparation.
Experimental: NADH ferricyanide reductase activity was determined at Vmax ferricyanide throughout the study with or without antimycin A (Singer, 1974). […] The reaction was started by the addition of 0.1 mM potassium ferricyanide and 0.14 mM NADH with and without 10 μg antimycin A. The decrease in NADH absorbance was followed at 340 nm for 1 min with a 3 sec interval between successive readings and 1 sec initial delay.

The target of experiment [5] is complex III (Homo sapiens, UniProt P00156+P08574+P47985). The following applies: glycerol-3-phosphate in the presence of rotenone, ATP and malonate. Here is the method:
(§2) Respiration rate was determined polarographically using a thermostatically controlled (37° C.) Clark oxygen electrode after 10 minutes of incubation. Respiration rates for each enzyme of the respiratory chain were assessed after the permeabilization of cellular membrane, with 0.001% digitonin followed by the addition of the following substrates and inhibitors: […] plus malate for complex I induced respiration; succinate, in the presence of rotenone and ATP for complex II induced respiration, and glycerol-3-phosphate, in the presence of rotenone. […] Results are means±SD of 3 experiments.

For experiment [6], the target named is T2, complex I. The following applies: permeabilized cells, 37° C., 10 minutes of incubation; means±SD of 3 experiments. Here is the method:
as §2

Experiment [7] addresses T1, complex II. The following applies: succinate in the presence of rotenone and ATP. Here is the method: as §2
Experiment [8] deals with EBV transformed lymphocytes. The method, then: Lymphocytes were isolated on Ficol and were centrifugated at 270 g for 10 minutes, the cell pellet was infected with 1 ml EBV at 37° C. for 1 h. The sample was then centrifuged at 270 g for 10 minutes to remove the EBV. The infected lymphocytes were-suspended in 5 ml of RPMI 1640 with 20% (v/v) FBS and 1% phytohemagglutinin (PHA) and incubated in a culture flask with culture medium replaced twice a week. Immortalized lymphocytes were then cryopreserved until use in liquid nitrogen.
Respiration was measured polarographically using a thermostatically controlled (37° C.) Clark oxygen electrode after 10 minutes of incubation. The respiration rates were assessed after the permeabilization of cellular membrane with 0.001% digitonin and the addition of glutamate+malate

T2 sequence (P49821 21-464): as the sequence (P49821 21-464) above
T2 sequence (P19404 33-249): as the sequence (P19404 33-249) above
T2 sequence (P28331 24-727): as the sequence (P28331 24-727) above
T1 sequence (P31040 43-664): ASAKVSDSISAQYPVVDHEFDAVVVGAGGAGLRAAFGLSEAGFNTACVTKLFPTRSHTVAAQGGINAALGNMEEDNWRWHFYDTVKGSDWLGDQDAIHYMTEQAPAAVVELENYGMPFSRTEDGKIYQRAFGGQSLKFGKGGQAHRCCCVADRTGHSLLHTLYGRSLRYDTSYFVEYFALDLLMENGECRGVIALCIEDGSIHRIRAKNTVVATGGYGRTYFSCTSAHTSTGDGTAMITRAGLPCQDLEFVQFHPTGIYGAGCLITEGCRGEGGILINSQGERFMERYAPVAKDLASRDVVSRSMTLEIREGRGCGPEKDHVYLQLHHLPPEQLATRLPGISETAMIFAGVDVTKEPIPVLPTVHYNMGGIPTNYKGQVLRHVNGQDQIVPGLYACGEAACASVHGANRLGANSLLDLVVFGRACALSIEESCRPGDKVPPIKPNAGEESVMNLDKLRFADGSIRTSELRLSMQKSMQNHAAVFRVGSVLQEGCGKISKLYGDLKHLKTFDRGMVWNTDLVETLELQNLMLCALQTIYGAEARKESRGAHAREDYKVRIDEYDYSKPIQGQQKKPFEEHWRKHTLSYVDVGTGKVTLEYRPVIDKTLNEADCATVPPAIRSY
T1 sequence (P21912 29-280): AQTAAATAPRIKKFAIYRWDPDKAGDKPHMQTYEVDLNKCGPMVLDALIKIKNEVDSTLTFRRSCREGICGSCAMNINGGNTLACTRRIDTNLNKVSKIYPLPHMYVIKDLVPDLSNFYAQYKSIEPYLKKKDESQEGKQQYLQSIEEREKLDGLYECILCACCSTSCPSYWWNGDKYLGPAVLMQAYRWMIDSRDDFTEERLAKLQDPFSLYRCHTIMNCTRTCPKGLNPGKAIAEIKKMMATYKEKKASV
T1 sequence (Q99643 30-169): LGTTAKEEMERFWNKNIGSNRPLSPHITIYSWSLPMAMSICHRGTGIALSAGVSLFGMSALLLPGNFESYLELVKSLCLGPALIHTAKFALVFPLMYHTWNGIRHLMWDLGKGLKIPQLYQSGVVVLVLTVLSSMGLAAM
T1 sequence (O14521 57-159): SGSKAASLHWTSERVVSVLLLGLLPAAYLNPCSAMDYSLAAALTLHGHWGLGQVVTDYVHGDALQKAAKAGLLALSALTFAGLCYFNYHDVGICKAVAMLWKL
T3 sequence (P28331 24-727): as the sequence (P28331 24-727) above
T3 sequence (P49821 21-464): as the sequence (P49821 21-464) above
T3 sequence (P19404 33-249): as the sequence (P19404 33-249) above

For the compound `CN(C)CCCN1c2ccccc2CCc2ccc(Cl)cc21` [Anafranil], in experiment [1], the inhibition at 50 µM is 11 ± 1.2% and the inhibition at 100 µM was 22.1 ± 18%. Besides, in experiment [2], the “% Inhibition - complex I” value is reported as 13.0 ± 11.0% and the inhibition at 100 µM came to 32.1 ± 8.8%.

Turning to `C=C(C)[C@H]1Cc2c(ccc3c2O[C@@H]2COc4cc(OC)c(OC)cc4[C@@H]2C3=O)O1` [rotenone], in experiment [3], the remaining activity at 10 µM was in the range of 5 to 15%. Further, in experiment [4], the “Effect on NADH ferricyanide reductase activity” value was “no effect”.

With `NCCc1ccc(O)c(O)c1` [Dopamine], in experiment [5], the “Inhibition of respiration through complex III” value is “not through complex II and III”. The “Inhibition of respiration through complex I” value in experiment [6] is reported as 33.3±0.07%. In addition, the “Inhibition of respiration through complex II” value in experiment [7] was “not through complex II”. In addition, the “Inhibition by DA in schizophrenic patients relative to control subjects” value in experiment [8] (EBV transformed lymphocytes) was “higher by two fold”. Also, the entries for the “Inhibition of respiration by DA” value in experiment [8] (lymphoblasts of control subjects (n=7)) and in experiment [8] (lymphoblasts of schizophrenic patients (n=7)) were 11.4±7.2% and 26.8±8.6%, respectively.

Consider `O=C(CCCN1CCC(O)(c2ccc(Cl)cc2)CC1)c1ccc(F)cc1` [Haloperidol], for which, in experiment [1], the “Effect on respiration through complex II (in words)” value is listed as “no effect”, the inhibition at 50 µM worked out at 0.7 ± 0.7% and 100 µM produced 2.9 ± 1.8% inhibition. In experiment [2], the “Effect on complex I driven mitochondrial respiration (in words)” value is “specifically inhibit complex I driven mitochondrial respiration”, the “% Inhibition - complex I” value is given as 27.2 ± 4.7 % and the inhibition at 100 µM came to 47.6 ± 10%.

For the compound `CN1CCN(C2=Nc3cc(Cl)ccc3Nc3ccccc32)CC1` [Clozapine], in experiment [1], the inhibition at 50 µM was 10.9 ± 1.6% and the inhibition at 100 µM was 2.6 ± 2.4%. In addition, in experiment [2], the “% Inhibition - complex I” value was determined as 31.2 ± 5.6 % and the inhibition at 100 µM was 39.9 ± 20.8%.

In experiment [1], `CNCCC(Oc1ccc(C(F)(F)F)cc1)c1ccccc1` (centres unmarked) [Fluoxetine] showed an inhibition at 50 µM of 15 ± 9.2% and an inhibition at 100 µM of 25.3 ± 0.2%. In experiment [2], the “% Inhibition - complex I” value is recorded as 15.7 ± 25.5% and the inhibition at 100 µM was determined as 29.2 ± 22.7%.

On to `CN(C)CCCN1c2ccccc2Sc2ccc(Cl)cc21` [Chlorpromazine], for which, in experiment [1], the “Effect on respiration through complex II (in words)” value was “no effect”, the inhibition at 50 µM worked out at 6.6 ± 3.5% and the inhibition at 100 µM amounted to 14.9 ± 2.1%. In experiment [2], the “Effect on complex I driven mitochondrial respiration (in words)” value is reported as “specifically inhibit complex I driven mitochondrial respiration”, the “% Inhibition - complex I” value stood at 20.9 ± 18.1 % and the inhibition at 100 µM turned out to be 43.8 ± 17.3%.

(Values after US8420308B2, “Methods and kits for diagnosis of schizophrenia” (Technion R&D Foundation Ltd., priority 2000, dated 2013).)
